Source: article PMC10180076, “Novel Biologically Active N-Substituted Benzimidazole Derived Schiff Bases: Design, Synthesis, and Biological Evaluation” (Molecules, 2023)
Read-outs that look alike come from different tables or passages of the source.

Key:
[1] = system: LN-229, glioblastoma; assay: Proliferation assay (MTS, 72 h), LN-229; type: cell-based, human
Source text: (§1) Human cancer cells used in this manuscript, namely Capan-1, HCT-116, NCI-H460, LN-229, HL-60, K-562, and Z-138, were acquired from the American Type Culture Collection (ATCC, Manassas, VA, USA), while the DND-41 cell line was purchased from the Deutsche Sammlung von Mikroorganismen und Zellkulturen (DSMZ Leibniz-Institut, Braunschweig, Germany). Culture media were purchased from Gibco Life Technologies, Merelbeke, Belgium, and supplemented with 10% fetal bovine serum (HyClone, Cytiva, Marlborough, MA, USA). Vincristine and docetaxel, which were used as the reference inhibitors, were purchased from Selleckchem (Munich, Germany). Stock solutions were prepared in DMSO.
(§2) Adherent cell lines LN-229, HCT-116, and NCI-H460 and Capan-1 cells were seeded at a density between 500 and 1500 cells per well, in 384-well tissue culture plates (Greiner, Kremsmünster, Austria). After overnight incubation, the cells were treated with seven different concentrations of the test compounds, ranging from 100 to 0.006 µM.
(§3) Suspension cell lines HL-60, K-562, Z-138, and DND-41 were seeded at densities ranging from 2500 to 5500 cells per well in 384-well culture plates containing the test compounds at the same concentration points. The cells were incubated for 72 h with the compounds and were then analyzed using the CellTiter 96® AQueous One Solution Cell Proliferation Assay (MTS) reagent (Promega, Madison, WI, USA) according to the manufacturer’s instructions. […] The compounds were tested in two independent experiments.

[2] = system: Capan-1, pancreatic adenocarcinoma; assay: Proliferation assay (MTS, 72 h), Capan-1; type: cell-based, human
Source text: as §1, §2, §3

[3] = system: HCT-116, colorectal carcinoma; assay: Proliferation assay (MTS, 72 h), HCT-116; type: cell-based, human
Source text: as §1, §2, §3

[4] = system: NCI-H460, lung carcinoma; assay: Proliferation assay (MTS, 72 h), NCI-H460; type: cell-based, human
Source text: as §1, §2, §3

[5] = system: DND-41, acute lymphoblastic leukemia; assay: Proliferation assay (MTS, 72 h), DND-41; type: cell-based, human
Source text: as §1, §2, §3

[6] = system: HL-60, acute myeloid leukemia; assay: Proliferation assay (MTS, 72 h), HL-60; type: cell-based, human
Source text: as §1, §2, §3

[7] = system: K-562, chronic myeloid leukemia; assay: Proliferation assay (MTS, 72 h), K-562; type: cell-based, human
Source text: as §1, §2, §3

[8] = system: Z-138, non-Hodgkin lymphoma; assay: Proliferation assay (MTS, 72 h), Z-138; type: cell-based, human
Source text: as §1, §2, §3

[9] = system: herpes simplex virus-1 (HSV-1 KOS); assay: Antiviral CPE reduction assay, HSV-1 KOS in HEL 299; type: cell-based; settings: Human alphaherpesvirus 1; HEL 299 cells, 100 CCID50, MTS
[10] = in vitro; settings: human
[11] = system: human coronavirus HCoV-229E; assay: organism not typed; type: cell-based; settings: HEL 299 cells, 100 CCID50, MTS; read-out: Antiviral Activity (EC50/μM) HCoV 229E HEL 299
[12] = system: human coronavirus HCoV-OC43; assay: microbe, parasite or virus in culture; type: cell-based; settings: Betacoronavirus 1, OC43; HEL 299 cells, 100 CCID50, MTS; read-out: Antiviral Activity (EC50/μM) HCoV OC43 HEL 299
[13] = system: human coronavirus HCoV-NL63; assay: Antiviral CPE reduction assay, HCoV-NL63 in Huh-7; type: cell-based; settings: Huh-7 cells, 100 CCID50, MTS
[14] = system: influenza A/H1N1 (A/Ned/378/05); assay: Antiviral CPE reduction assay, influenza A/H1N1 in MDCK; type: cell-based; settings: Influenza A virus, MDCK cells, 100 CCID50, MTS
[15] = system: influenza A/H3N2 (A/HK/7/87); assay: Antiviral CPE reduction assay, influenza A/H3N2 in MDCK; type: cell-based; settings: Influenza A virus, MDCK cells, 100 CCID50, MTS
[16] = system: influenza B (B/Ned/537/05); assay: Antiviral CPE reduction assay, influenza B in MDCK; type: cell-based; settings: Influenza B virus; MDCK cells, 100 CCID50, MTS
[17] = system: respiratory syncytial virus A (Long); assay: Antiviral CPE reduction assay, RSV A in HEL 299; type: cell-based; settings: human respiratory syncytial virus; HEL 299 cells, 100 CCID50, MTS
[18] = system: yellow fever virus (YFV 17D); assay: microbe, parasite or virus in culture; type: cell-based; settings: Huh-7, read-out: Antiviral Activity (EC50/μM) YFV 17D Huh-7
[19] = system: Zika virus (Mr776); assay: Antiviral CPE reduction assay, Zika virus in Huh-7; type: cell-based; settings: Huh-7 cells, 100 CCID50, MTS
[20] = system: sindbis virus; assay: Antiviral CPE reduction assay, Sindbis virus in Huh-7; type: cell-based; settings: Huh-7 cells, 100 CCID50, MTS
[21] = in vitro; settings: human; remark: listed apart in the source
[22] = in vitro; settings: dog

Compound: 2-amino-1-phenylbenzimidazole [Compound 19]
- IC50 [1]: > 100 µM
- IC50 [2]: > 100 µM
- IC50 [3]: > 100 µM
- IC50 [4]: > 100 µM
- IC50 [5]: 98.3 µM
- IC50 [6]: > 100 µM
- IC50 [7]: > 100 µM
- IC50 [8]: > 100 µM

Compound: 2-amino-6-cyano-1-isobutylbenzimidazole [Compound 21]
- IC50 [1]: > 100 µM
- IC50 [2]: > 100 µM
- IC50 [3]: > 100 µM
- IC50 [4]: 69.2 µM
- IC50 [5]: > 100 µM
- IC50 [6]: > 100 µM
- IC50 [7]: > 100 µM
- IC50 [8]: > 100 µM

Compound: O=c1[nH]c(=O)n([C@H]2C[C@H](O)[C@@H](CO)O2)cc1/C=C/Br [BVDU, brivudine, reference compound]
- EC50 [9]: 0.05 µM
- CC50 [10]: > 100 µM

Compound: CC(C)Cn1c(N)nc2ccccc21 [Compound 17, 2-amino-1-isobutylbenzimidazole]
- EC50 [11]: 78.9 µM
- EC50 [12]: > 100 µM
- EC50 [13]: > 100 µM
- EC50 [14]: > 100 µM
- EC50 [15]: > 100 µM
- EC50 [16]: > 100 µM
- EC50 [17]: > 100 µM
- EC50 [9]: > 100 µM
- EC50 [18]: > 100 µM
- EC50 [19]: > 100 µM
- EC50 [20]: > 100 µM
- CC50 [10]: > 100 µM
- CC50 [21]: > 100 µM
- CC50 [22]: > 100 µM

Compound: CCCCCCn1c(N)nc2ccccc21 [Compound 20, 2-amino-1-hexylbenzimidazole]
- melting point: 245 to 250 °C

Compound: CCCCCCn1c(N)nc2ccc(C#N)cc21 [Compound 24, 2-Amino-6-cyano-1-hexylbenzimidazole]
- melting point: 215 to 220 °C

Compound: CC(C)Cn1c(/N=C/c2ccc(N(C)C)cc2)nc2ccccc21 [Compound 28, (E)-4-(((1-Isobutyl-1H-benzo[d]imidazol-2-yl)imino)methyl)-N,N-dimethylaniline]
- IC50 ([1]; Homo sapiens, LN-229): > 100 µM
- IC50 ([2]; Homo sapiens, CAPAN-1): > 100 µM
- IC50 ([3]; Homo sapiens, HCT-116): 15.2 µM
- IC50 ([4]; Homo sapiens, NCI-H460): > 100 µM
- IC50 ([5]; Homo sapiens, DND41): > 100 µM
- IC50 ([6]; Homo sapiens, HL-60): > 100 µM
- IC50 ([7]; Homo sapiens, K562): > 100 µM
- IC50 ([8]; Homo sapiens, Z-138): > 100 µM
- melting point: 277 to 279 °C

Compound: CCN(CC)c1ccc(/C=N/c2nc3ccccc3n2CC(C)C)c(O)c1 [Compound 30, (E)-5-(Diethylamino)-2-(((1-isobutyl-1H-benzo[d]imidazol-2-yl)imino)methyl)phenol]
- IC50 ([1]; Homo sapiens, LN-229): > 100 µM
- IC50 ([2]; Homo sapiens, CAPAN-1): > 100 µM
- IC50 ([3]; Homo sapiens, HCT-116): > 100 µM
- IC50 ([4]; Homo sapiens, NCI-H460): > 100 µM
- IC50 ([5]; Homo sapiens, DND41): > 100 µM
- IC50 ([6]; Homo sapiens, HL-60): 70.4 µM
- IC50 ([7]; Homo sapiens, K562): > 100 µM
- IC50 ([8]; Homo sapiens, Z-138): > 100 µM

Compound: CN(C)c1ccc(/C=N/c2nc3ccccc3n2C)cc1 [Compound 33, (E)-N,N-Dimethyl-4-(((1-methyl-1H-benzo[d]imidazol-2-yl)imino)methyl)aniline]
- IC50 ([1]; Homo sapiens, LN-229): > 100 µM
- IC50 ([2]; Homo sapiens, CAPAN-1): > 100 µM
- IC50 ([3]; Homo sapiens, HCT-116): > 100 µM
- IC50 ([4]; Homo sapiens, NCI-H460): > 100 µM
- IC50 ([5]; Homo sapiens, DND41): > 100 µM
- IC50 ([6]; Homo sapiens, HL-60): > 100 µM
- IC50 ([7]; Homo sapiens, K562): > 100 µM
- IC50 ([8]; Homo sapiens, Z-138): > 100 µM
- melting point: 186 to 188 °C

Compound: CCN(CC)c1ccc(/C=N/c2nc3ccccc3n2C)c(O)c1 [Compound 35, (E)-5-(Diethylamino)-2-(((1-methyl-1H-benzo[d]imidazol-2-yl)imino)methyl)phenol]
- IC50 ([1]; Homo sapiens, LN-229): > 100 µM
- IC50 ([2]; Homo sapiens, CAPAN-1): > 100 µM
- IC50 ([3]; Homo sapiens, HCT-116): > 100 µM
- IC50 ([4]; Homo sapiens, NCI-H460): > 100 µM
- IC50 ([5]; Homo sapiens, DND41): > 100 µM
- IC50 ([6]; Homo sapiens, HL-60): > 100 µM
- IC50 ([7]; Homo sapiens, K562): > 100 µM
- IC50 ([8]; Homo sapiens, Z-138): > 100 µM
